Laboratory results taken from patent US20240228458A1, “PYRIMIDINE DERIVATIVE HAVING PROTEIN KINASE INHIBITORY ACTIVITY, AND THERAPEUTIC PHARMACEUTICAL COMPOSITION COMPRISING SAME” (THERAPEX CO., LTD., priority 2021, published 2024).

Assays:
Format in all cases: cell-based
[1] = tested on: Ba/F3 cells expressing del19/T790M/C797S (EGFR-DTC); assay: Growth inhibition (GI50) of Ba/F3 cells expressing del19/T790M/C797S (EGFR-DTC), Celltiter glo; conditions: Mus musculus, BaF3, 72 h
Method: (§1) In this experimental example, a determination was made as to whether the compounds prepared in Examples 1-283 have the ability to inhibit the growth of Ba/F3 cells expressing EGFR-wt, del19/T790M/C797S (EGFR-DTC), L858R/T790M/C797S (EGFR-LTC), del19/T790M (EGFR-DT), and L858R/T790M (EGFR-LT) variants.
(§2) The parental Ba/F3 cell line is a population of cells that are not introduced with EGFR variants. Specifically, 100 μl of a cell line expressing each variant was plated in a 96-well plate at a density of 100,000 cells/ml. 10-point, 4-fold serial dilutions of each compound were prepared, starting at 2 mM. After 4 h, 0.5 μl of the compound (0.5% DMSO) was added, followed by incubation at 37° C. and 5% CO2 for 72 h. After incubation, the number of viable cells was measured using a Celltiter glo assay kit (Promega) and the GI50 of the compound was determined. The term “GI50” refers to the molar concentration (μM) of the compound required for 50% growth inhibition of cells.

[2] = tested on: Ba/F3 cells expressing EGFR-wt; assay: Growth inhibition (GI50) of Ba/F3 cells expressing EGFR-wt, Celltiter glo; conditions: Mus musculus, BaF3, 72 h
Method: as §1, §2

[3] = tested on: parental Ba/F3 cell line; assay: Growth inhibition (GI50) of the parental Ba/F3 cell line (not introduced with EGFR variants), Celltiter glo; conditions: Mus musculus, BaF3, 72 h, parental Ba/F3 cells
Method: as §2

| Structure (SMILES) | GI50 [1] [µM] | GI50 [2] [µM] | GI50 [3] [µM] |
| --- | --- | --- | --- |
| CCN1CCN(c2ccc(Nc3ncc(Cl)c(Nc4ccccc4C(F)(F)F)n3)cc2)CC1 [Example 48] | 0.5 to 2 | 2 to 10 | 2 to 10 |
| FC(F)(F)c1ccccc1Nc1nc(Nc2ccc(N3CCOCC3)nc2)ncc1Cl [Example 49] | 0.5 to 2 | 2 to 10 | 2 to 10 |
| CN1CCN(C2CCN(c3ccc(Nc4ncc(Cl)c(Nc5ccccc5S(=O)(=O)NC5CC5)n4)cc3F)CC2)CC1 [Example 60, 2-((5-chloro-2-((3-fluoro-4-(4-(4-methylpiperazin-1-yl)piperidin-1-yl)phenyl)amino)pyrimidin-4-yl)amino)-N-cyclopropylbenzenesulfonamide] | 0.025 to 0.1 | 0.1 to 0.5 | 0.1 to 0.5 |
| COc1cc(N2CCC(N3CCN(C)CC3)CC2)c(C)cc1Nc1ncc(Cl)c(Nc2ccccc2S(=O)(=O)NC2CC2)n1 [Example 59, 2-((5-chloro-2-((2-methoxy-5-methyl-4-(4-(4-methylpiperazin-1-yl)piperidin-1-yl)phenyl)amino)pyrimidin-4-yl)amino)-N-cyclopropylbenzenesulfonamide] | 0.5 to 2 | 0.5 to 2 | 0.5 to 2 |
| CN1CCN(C2CCN(c3ccc(Nc4ncc(Cl)c(Nc5ccc(F)cc5NS(C)(=O)=O)n4)cn3)CC2)CC1 [Example 14] | 2 to 10 | > 10 | 2 to 10 |
| CN1CCN(C2CCN(c3ccc(Nc4ncc(Cl)c(Nc5ccccc5NS(C)(=O)=O)n4)cc3F)CC2)CC1 [Example 5, N-(2-((5-chloro-2-((3-fluoro-4-(4-(4-methylpiperazin-1-yl)piperidin-1-yl)phenyl)amino)pyrimidin-4-yl)amino)phenyl)methanesulfonamide] | 0.001 to 0.025 | 0.1 to 0.5 | 0.025 to 0.1 |
| COc1cc(N2CCC(N3CCN(C)CC3)CC2)c(C)cc1Nc1ncc(Cl)c(Nc2ccc(F)cc2NS(C)(=O)=O)n1 [Example 12] | 0.025 to 0.1 | 0.1 to 0.5 | 2 to 10 |
| COc1cc(N2CCC(N3CCN(C)CC3)CC2)ccc1Nc1ncc(Cl)c(Nc2ccccc2C(F)(F)F)n1 [Example 47] | 0.5 to 2 | 2 to 10 | 2 to 10 |
| CNS(=O)(=O)c1ccccc1Nc1nc(Nc2cc(C)c(N3CCC(N4CCN(C)CC4)CC3)cc2OC)ncc1Cl [Example 50, 2-((5-chloro-2-((2-methoxy-5-methyl-4-(4-(4-methylpiperazin-1-yl)piperidin-1-yl)phenyl)amino)pyrimidin-4-yl)amino)-N-methylbenzenesulfonamide] | 0.1 to 0.5 | 0.5 to 2 | 0.5 to 2 |
| COc1cc(N2CCC(N3CCN(C)CC3)CC2)c(C)cc1Nc1ncc(Cl)c(Nc2ccccc2C(F)(F)F)n1 [Example 46] | 2 to 10 | 2 to 10 | 2 to 10 |
| CNS(=O)(=O)c1ccccc1Nc1nc(Nc2ccc(N3CCC(N4CCN(C)CC4)CC3)nc2)ncc1Cl [Example 52, 2-((5-chloro-2-((6-(4-(4-methylpiperazin-1-yl)piperidin-1-yl)pyridin-3-yl)amino)pyrimidin-4-yl)amino)-N-methylbenzenesulfonamide] | 0.025 to 0.1 | 0.1 to 0.5 | 0.1 to 0.5 |
| CN1CCN(C2CCN(c3ncc(Nc4ncc(Cl)c(Nc5ccc(F)cc5NS(C)(=O)=O)n4)cc3F)CC2)CC1 [Example 16] | 0.5 to 2 | 2 to 10 | 0.5 to 2 |
| CNS(=O)(=O)c1ccccc1Nc1nc(Nc2ccc(N3CCOCC3)nc2)ncc1Cl [Example 53, 2-((5-chloro-2-((6-morpholinopyridin-3-yl)amino)pyrimidin-4-yl)amino)-N-methylbenzenesulfonamide] | 0.1 to 0.5 | 0.1 to 0.5 | 0.1 to 0.5 |
| CNS(=O)(=O)c1ccccc1Nc1nc(Nc2ccc(N3CCC(N4CCN(C)CC4)CC3)cc2OC)ncc1Cl [Example 51, 2-((5-chloro-2-((2-methoxy-4-(4-(4-methylpiperazin-1-yl)piperidin-1-yl)phenyl)amino)pyrimidin-4-yl)amino)-N-methylbenzenesulfonamide] | 0.1 to 0.5 | 2 to 10 | 2 to 10 |

More lines, main results first:

| GI50 [1] [µM] | GI50 [2] [µM] | Structure (SMILES) | GI50 [3] [µM] |
| --- | --- | --- | --- |
| 0.5 to 2 | 0.5 to 2 | CNS(=O)(=O)c1ccccc1Nc1nc(Nc2ccc(N3CCC(N4CCN(C)CC4)CC3)nc2OC)ncc1Cl [Example 55, 2-((5-chloro-2-((2-methoxy-6-(4-(4-methylpiperazin-1-yl)piperidin-1-yl)pyridin-3-yl)amino)pyrimidin-4-yl)amino)-N-methylbenzenesulfonamide] | 0.1 to 0.5 |
| 0.5 to 2 | 2 to 10 | COc1nc(N2CCC(N3CCN(C)CC3)CC2)ccc1Nc1ncc(Cl)c(Nc2ccc(F)cc2NS(C)(=O)=O)n1 [Example 17, N-(2-((5-chloro-2-((2-methoxy-6-(4-(4-methylpiperazin-1-yl)piperidin-1-yl)pyridin-3-yl)amino)pyrimidin-4-yl)amino)-5-fluorophenyl)methanesulfonamide] | 2 to 10 |
| 0.5 to 2 | 2 to 10 | CN1CCN(C2CCN(c3ccc(Nc4ncc(Cl)c(Nc5ccccc5NS(C)(=O)=O)n4)c(OCC(F)(F)F)n3)CC2)CC1 [Example 4, N-(2-((5-chloro-2-((6-(4-(4-methylpiperazin-1-yl)piperidin-1-yl)-2-(2,2,2-trifluoroethoxy)pyridin-3-yl)amino)pyrimidin-4-yl)amino)phenyl)methanesulfonamide] | 2 to 10 |
| 2 to 10 | 0.1 to 0.5 | CCN1CCN(c2ccc(Nc3ncc(Cl)c(Nc4ccccc4S(=O)(=O)NC)n3)c(OC)n2)CC1 [Example 54, 2-((5-chloro-2-((6-(4-ethylpiperazin-1-yl)-2-methoxypyridin-3-yl)amino)pyrimidin-4-yl)amino)-N-methylbenzenesulfonamide] | 2 to 10 |
| 0.001 to 0.025 | 0.1 to 0.5 | COc1cc(N2CCC(N3CCN(C)CC3)CC2)c(C)cc1Nc1ncc(Cl)c(Nc2ccccc2NS(C)(=O)=O)n1 [Example 2, N-(2-((5-chloro-2-((2-methoxy-5-methyl-4-(4-(4-methylpiperazin-1-yl)piperidin-1-yl)phenyl)amino)pyrimidin-4-yl)amino)phenyl)methanesulfonamide] | 0.5 to 2 |
| 0.1 to 0.5 | 0.5 to 2 | CS(=O)(=O)Nc1cc(F)ccc1Nc1nc(Nc2ccc(N3CCOCC3)nc2)ncc1Cl [Example 13] | 0.5 to 2 |
| 2 to 10 | 2 to 10 | COc1nc(N2CCC(N3CCN(C)CC3)CC2)ccc1Nc1ncc(Cl)c(Nc2ccccc2S(=O)(=O)NC2CC2)n1 [Example 61] | 0.5 to 2 |
| 0.1 to 0.5 | 0.5 to 2 | CN1CCN(C2CCN(c3ccc(Nc4ncc(Cl)c(Nc5ccccc5NS(C)(=O)=O)n4)cn3)CC2)CC1 [Example 3, N-(2-((5-chloro-2-((6-(4-(4-methylpiperazin-1-yl)piperidin-1-yl)pyridin-3-yl)amino)pyrimidin-4-yl)amino)phenyl)methanesulfonamide] | 0.5 to 2 |
| 0.1 to 0.5 | 0.5 to 2 | CCN1CCN(c2ccc(Nc3ncc(Cl)c(Nc4ccccc4NS(C)(=O)=O)n3)c(OC)n2)CC1 [Example 1] | 2 to 10 |
